This passage reports T/C results from PubChem BioAssay AID330 (DTP/NCI, 2004).

Each structure is given as a SMILES string. Values joined by “and” are separate entries in the source; they are usually repeats but may differ in a detail not shown here. Equal values may be shown once. Toxic doses and inconclusive results are not listed.

The test system of this experiment is P388 leukemia ip, CD2F1 mice, survival T/C. The experiment can be described thus: NCI In Vivo Anticancer Drug Screen. Data for tumor model P388 Leukemia (intraperitoneal) in CD2F1 (CDF1) mice. Conditions: endpoint: median survival time, higher = longer survival. Put shortly: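 Mice carrying the transplanted tumor received test compound or vehicle. Survival was recorded in each group, and the value is the treated-group measurement divided by that of the vehicle-treated control group.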

[1] abbreviates: dose: 50.0 mg/kg/injection, schedule: Q01DX009 (ip), vehicle: Klucel (hydroxypropylcellulose) (HPC).
Setting [2] is: dose: 100.0 mg/kg/injection, schedule: Q01DX009 (ip), vehicle: Klucel (hydroxypropylcellulose) (HPC).
Setting [3] is: dose: 6.25 mg/kg/injection, schedule: Q01DX005 (ip), vehicle: saline with Tween-80.
Where [4] appears, read: dose: 12.5 mg/kg/injection, schedule: Q01DX005 (ip), vehicle: saline with Tween-80.
The mark [5] stands for this setting: dose: 50.0 mg/kg/injection, schedule: Q01DX009 (ip), vehicle: saline.
Setting [6] is: dose: 60.0 mg/kg/injection, schedule: Q01DX005 (ip), vehicle: saline with Tween-80.
Setting [7] is: dose: 120.0 mg/kg/injection, schedule: Q01DX005 (ip), vehicle: saline with Tween-80.
[8] abbreviates: dose: 50.0 mg/kg/injection, schedule: Q01DX005 (ip), vehicle: saline with Tween-80.

`O=C1/C(=C/C=C/c2ccccc2)C(=S)SN1Cc1ccco1`: the T/C is 96 % of control under setting [1] and 97 % of control under setting [2].

On to `CCC/C(=N\NC(=S)N1CCN(c2ccccn2)CC1)c1ccccn1`, for which the T/C reads like this: under setting [3], 102 % of control and 104 % of control; under setting [4], 107 % of control and 110 % of control.

In the case of `CS(=O)(=O)Oc1ccc([N+](=O)[O-])cc1`, the T/C is 98 % of control under setting [1]; 107 % of control under setting [2]; 114 % of control (dose: 200.0 mg/kg/injection, schedule: Q01DX009 (ip), vehicle: Klucel (hydroxypropylcellulose) (HPC)).

Regarding `Cc1ccc(NCCCC2CCCN3CCCCC23)c2c(=O)c3ccccc3sc12` (centres undefined), the T/C is 100 % of control (dose: 12.5 mg/kg/injection, schedule: Q01DX005 (ip), vehicle: distilled water + Tween-80); 91 % of control (dose: 25.0 mg/kg/injection, schedule: Q01DX005 (ip), vehicle: distilled water + Tween-80); 90 % of control (dose: 50.0 mg/kg/injection, schedule: Q01DX005 (ip), vehicle: distilled water + Tween-80).

Regarding `CN1CCC2=C(C1)C(c1ccccc1)c1ccccc12` (centres undefined), the T/C was 107 % of control (dose: 33.0 mg/kg/injection, schedule: Q01DX009 (ip), vehicle: saline); 104 % of control under setting [5]; 107 % of control (dose: 75.0 mg/kg/injection, schedule: Q01DX009 (ip), vehicle: saline).

For `CC1CCC(C(C)C)C(NC(=O)c2ccc[n+](C)c2)C1` (centres undefined), the T/C was 97 % of control (dose: 25.0 mg/kg/injection, schedule: Q04DX002 (ip), vehicle: saline) and 97 % of control (dose: 50.0 mg/kg/injection, schedule: Q04DX002 (ip), vehicle: saline).

With `COc1cc(C(c2cc3c(cc2O)OCO3)N2CCOCC2)cc(OC)c1OC` (centres undefined), the T/C under setting [6] was 107 % of control and the T/C under setting [7] was 111 % of control.

Turning to `N=C(N=C(C(Cl)(Cl)Cl)C(Cl)(Cl)Cl)N=C(C(Cl)(Cl)Cl)C(Cl)(Cl)Cl`, the T/C runs as follows: under setting [6], 100 % of control; under setting [7], 99 % of control; (dose: 240.0 mg/kg/injection, schedule: Q01DX005 (ip), vehicle: saline with Tween-80) 104 % of control.

For `Nc1ccc(Cl)cc1C(=O)N1CCN(c2ccc([N+](=O)[O-])cn2)CC1`, the T/C (dose: 7.5 mg/kg/injection, schedule: Q01DX005 (ip), vehicle: Klucel (hydroxypropylcellulose) (HPC)) is 99 % of control; the T/C (dose: 15.0 mg/kg/injection, schedule: Q01DX005 (ip), vehicle: Klucel (hydroxypropylcellulose) (HPC)) is 92 % of control; the T/C (dose: 30.0 mg/kg/injection, schedule: Q01DX005 (ip), vehicle: Klucel (hydroxypropylcellulose) (HPC)) was 93 % of control.

Take `CCC1(c2ccccc2)C(=O)c2ccccc2C1=O`: the T/C was 101 % of control (dose: 100.0 mg/kg/injection, schedule: Q04DX002 (ip), vehicle: saline); 102 % of control (dose: 200.0 mg/kg/injection, schedule: Q04DX002 (ip), vehicle: saline); 105 % of control (dose: 400.0 mg/kg/injection, schedule: Q04DX002 (ip), vehicle: saline).

For the compound `N#Cc1c(N)sc(=S)c2ccccc12`, the T/C is 91 % of control under setting [5]; 104 % of control (dose: 100.0 mg/kg/injection, schedule: Q01DX009 (ip), vehicle: saline); 95 % of control (dose: 200.0 mg/kg/injection, schedule: Q01DX009 (ip), vehicle: saline).

On to `OC(CC1CCCCN1)c1cc(C(F)(F)F)nc2c(C(F)(F)F)cccc12` (centres undefined), for which the T/C was 101 % of control (dose: 12.5 mg/kg/injection, schedule: Q01DX009 (ip), vehicle: saline with Tween-80); 100 % of control (dose: 25.0 mg/kg/injection, schedule: Q01DX009 (ip), vehicle: saline with Tween-80); 108 % of control (dose: 50.0 mg/kg/injection, schedule: Q01DX009 (ip), vehicle: saline with Tween-80).

In the case of `O=C1CN(c2cccc(Cl)c2)C(=O)CN1/N=C/c1ccc[nH]1`, the T/C by setting is: under setting [8], 92 % of control; (dose: 100.0 mg/kg/injection, schedule: Q01DX005 (ip), vehicle: saline with Tween-80) 102 % of control; (dose: 200.0 mg/kg/injection, schedule: Q01DX005 (ip), vehicle: saline with Tween-80) 90 % of control.

In the case of `C/C(=N/NC(N)=O)c1ccc2c3c(cc(Br)c2c1)CCCC3`, the T/C runs as follows: under setting [3], 99 % of control; under setting [4], 99 % of control; (dose: 25.0 mg/kg/injection, schedule: Q01DX005 (ip), vehicle: saline with Tween-80) 95 % of control; under setting [8], 91 % of control.

Regarding `COC(=O)C(=C(C)C)S(=O)c1ccccc1` (centres undefined), the T/C by setting is: (dose: 12.5 mg/kg/injection, schedule: Q01DX005 (ip), vehicle: saline) 102 % of control; (dose: 25.0 mg/kg/injection, schedule: Q01DX005 (ip), vehicle: saline) 103 % of control; (dose: 50.0 mg/kg/injection, schedule: Q01DX005 (ip), vehicle: saline) 100 % of control and 104 % of control.

Regarding `COC1C(O)CC(OC2CC(Oc3cc4cc5c(c(O)c4c(O)c3C)C(=O)[C@@H](OC3CC(OC4CC(OC6CC(C)(O)C(OC(C)=O)C(C)O6)C(O)C(C)O4)C(O)C(C)O3)[C@H]([C@H](OC)C(=O)[C@@H](O)[C@@H](C)O)C5)OC(C)C2OC(C)=O)OC1C` (some centres undefined), the T/C runs as follows: (dose: 0.02 mg/kg/injection, schedule: Q01DX001 (ip), vehicle: other) 114 % of control; (dose: 0.02 mg/kg/injection, schedule: Q01DX009 (ip), vehicle: saline sonified) 150 % of control; (dose: 0.03 mg/kg/injection, schedule: Q01DX005 (ip), vehicle: saline) 150 % of control; (dose: 0.03 mg/kg/injection, schedule: Q01DX005 (iv), vehicle: saline) 95 % of control; (dose: 0.03 mg/kg/injection, schedule: Q01DX009 (ip), vehicle: saline) 154 % of control; (dose: 0.04 mg/kg/injection, schedule: Q01DX009 (ip), vehicle: saline sonified) 165 % of control. Further, the T/C runs as follows: (dose: 0.05 mg/kg/injection, schedule: Q01DX005 (ip), vehicle: saline) 155 % of control; (dose: 0.06 mg/kg/injection, schedule: Q01DX005 (ip), vehicle: saline) 175 % of control; (dose: 0.08 mg/kg/injection, schedule: Q01DX009 (ip), vehicle: saline sonified) 180 % of control; (dose: 0.1 mg/kg/injection, schedule: Q01DX005 (ip), vehicle: saline) 155 % of control; (dose: 0.1 mg/kg/injection, schedule: Q01DX005 (iv), vehicle: saline) 98 % of control; (dose: 0.12 mg/kg/injection, schedule: Q01DX005 (ip), vehicle: saline) 190 % of control. Besides, the T/C is, setting by setting: (dose: 0.12 mg/kg/injection, schedule: Q04DX003 (ip), vehicle: saline) 154 % of control; (dose: 0.15 mg/kg/injection, schedule: Q01DX009 (ip), vehicle: saline sonified) 180 % of control; (dose: 0.2 mg/kg/injection, schedule: Q01DX005 (ip), vehicle: saline) 158 % of control; (dose: 0.2 mg/kg/injection, schedule: Q01DX005 (iv), vehicle: saline) 100 % of control; (dose: 0.25 mg/kg/injection, schedule: Q01DX005 (ip), vehicle: saline) 220 % of control; (dose: 0.25 mg/kg/injection, schedule: Q04DX003 (ip), vehicle: saline) 175 % of control. Moreover, the T/C is 180 % of control (dose: 0.3 mg/kg/injection, schedule: Q01DX009 (ip), vehicle: saline sonified); 181 % of control (dose: 0.3 mg/kg/injection, schedule: Q04DX003 (ip), vehicle: saline sonified); 229 % of control (dose: 0.4 mg/kg/injection, schedule: Q01DX005 (ip), vehicle: saline); 158 % of control (dose: 0.5 mg/kg/injection, schedule: Q01DX001 (ip), vehicle: other); 172 % of control (dose: 0.5 mg/kg/injection, schedule: Q01DX001 (ip), vehicle: saline); 87 % of control (dose: 0.5 mg/kg/injection, schedule: Q04DX003 (ip), vehicle: saline).

For `CC1=CC(=Nc2ccc(N(CCCl)CCCl)cc2)C(C)=C(C)C1=O`, for the setting “dose: 100.0 mg/kg/injection, schedule: Q01DX001 (ip), vehicle: Klucel (hydroxypropylcellulose) (HPC)”, the T/C was 116 % of control and 123 % of control.

`NC(=O)/N=[N+](\[O-])c1ccccc1`: the T/C is, setting by setting: (dose: 50.0 mg/kg/injection, schedule: Q04DX003 (ip), vehicle: Klucel (hydroxypropylcellulose) (HPC)) 98 % of control; (dose: 100.0 mg/kg/injection, schedule: Q04DX003 (ip), vehicle: Klucel (hydroxypropylcellulose) (HPC)) 94 % of control.
